From patent US20240425452A1
“And” between values parts separate entries of the source, which are not always exact repeats. Equal values may be shown once. Read-outs that look alike come from different tables or passages of the source.

Legend:
[1] = Exposure of trans isomer to artificial daylight, 1H NMR analysis; assay type: physicochemical; conditions: 10% d6-DMSO in buffer pH 7.4, artificial daylight 5 hr
Excerpt: A sample of substantially pure trans isomer of 3-(2-bromo-3,4-dihydroxy-phenyl)-N-(3,4,5-trihydroxy-benzyl)-thioacrylamide in 10% d6-DMSO in a buffer (pH 7.4) was irradiated with an artificial daylight for 5 hr. Thereafter, the solution was characterized by ^1H-NMR analyses.
Thus, differentiating between the two isomers can be performed using ^1H-NMR analysis.

[2] = Exposure of trans isomer in HPCD solution to room lighting, UV analysis; assay type: physicochemical; conditions: 0.5 mg/mL in 0.025% phosphoric acid (diluted from HPCD solution), clear glass vials, room lighting several days
[3] = assay type: physicochemical; conditions: 1 mM, 125 lux light
Excerpt: An additional assessment of the stability of the trans isomer upon exposure to artificial daylight was made.

[4] = Interactions with water molecules, thermogravimetric analysis (TGA); assay type: physicochemical; conditions: TGA 30-200° C. at 10° C./min, 1 mM in water with 1% DMSO
Method: TGA was performed on a Perkin Elmer TGA 800 using Pyris software. A temperature scan from 30° C. to 200° C. at a rate of 10° C./min was performed. The isomers were analyzed at a concentration of 1 mM in water (containing 1% DMSO).

[5] = physchem
[6] = Stability in biorelevant fluids (FaSSGF, FaSSIF), HPLC; conditions: for Percent of isomer in FaSSGF / Percent of isomer in FaSSIF: 250 μM
[7] = Octanol:water partition coefficient (Log P), HPLC
[8] = simulated intestinal fluid, 0 h
[9] = simulated intestinal fluid, 0.5 h

Question: For Oc1cc(CNC(=S)/C=C/c2ccc(O)c(O)c2Br)cc(O)c1O [trans isomer], which “conversion of the trans isomer to the cis isomer (1H-NMR)” value [1] is on record?
Answer: significant conversion

Question: And the “conversion of the trans isomer to the cis isomer” value [2]?
Answer: conversion of the trans isomer to the cis isomer

Question: What about the “% cis” value ([3]; 0 hours) of the same molecule?
Answer: 0%

Question: And the “% trans” value ([3]; 0 hours)?
Answer: 100%

Question: And the “% trans” value ([3]; 1 hour)?
Answer: 50.5%

Question: What about the “% cis” value ([3]; 2 hours) of the same molecule?
Answer: 64% and 63.7%

Question: And the “% trans” value ([3]; 2 hours)?
Answer: 36.3%

Question: And the “% cis” value ([3]; 4 hours)?
Answer: 87.7%

Question: What about the “% trans” value ([3]; 4 hours) of the same molecule?
Answer: 12.3%

Question: What about the “% trans” value ([3]; 5 hours) of the same molecule?
Answer: 8.5%

Question: What about the “% cis” value ([3]; 6 hours) of the same molecule?
Answer: 92.1%

Question: What about the “% trans” value ([3]; 6 hours) of the same molecule?
Answer: 7.9%

Question: What about the “Maximum evaporation rate (bound water)” value [4] of the same molecule?
Answer: 12%/min

Question: And the “Maximum evaporation rate (free water)” value [4]?
Answer: 23 %/min

Question: And the “Temperature of mid evaporation (free water)” value [4]?
Answer: 87 °C

Question: What about the “Maximum evaporation rate (free water)” value ([4]; listed as Trans isomer) of the same molecule?
Answer: 23%/min

Question: And the logP at 24 h [5]?
Answer: 0.86

Question: And the “Percent of isomer in FaSSGF” value ([6]; simulated gastric fluid, 0 h)?
Answer: 100%

Question: And the “Percent of isomer in FaSSGF” value ([6]; simulated gastric fluid, 0.5 h)?
Answer: 100%

Question: And the “Percent of isomer in FaSSGF” value ([6]; simulated gastric fluid, 4 h)?
Answer: 100%

Question: And the “stability in FaSSGF” value ([6]; simulated gastric fluid, up to 4 h)?
Answer: completely stable

Question: And the “reduction of concentration in FaSSIF” value ([6]; simulated intestinal fluid, 0 to 4 h)?
Answer: ~7%

Question: And the “Percent of isomer in FaSSIF” value [6, 8]?
Answer: 98.15%

Question: And the “Percent of isomer in FaSSIF” value [6, 9]?
Answer: 96.25%

Question: What about the “Percent of isomer in FaSSIF” value ([6]; simulated intestinal fluid, 4 h) of the same molecule?
Answer: 90.98%

Question: Which results are given for Oc1cc(CNC(=S)C=Cc2ccc(O)c(O)c2Br)cc(O)c1O (single isomer, unassigned; isomer 3) [cis isomer]?
Answer: Maximum evaporation rate (bound water) [4]: 12%/min; Maximum evaporation rate (free water) [4]: 37 %/min; Temperature of mid evaporation (free water) [4]: 58 °C; Maximum evaporation rate (free water) ([4]; listed as Cis isomer): 37%/min; logP at 24 h [7]: -0.18; reduction of concentration in FaSSGF ([6]; simulated gastric fluid, 0 to 4 h): ~16%; Percent of isomer in FaSSGF ([6]; simulated gastric fluid, 0 h): 89.05%; Percent of isomer in FaSSGF ([6]; simulated gastric fluid, 0.5 h): 89.07%; Percent of isomer in FaSSGF ([6]; simulated gastric fluid, 4 h): 73.47%; Percent of isomer in FaSSIF [6, 8]: 83.49%; Percent of isomer in FaSSIF [6, 9]: 72.21%; Percent of isomer in FaSSIF ([6]; simulated intestinal fluid, 4 h, listed as Cis): 54.87%; Percent of isomer in FaSSIF ([6]; simulated intestinal fluid, 4 h, listed as cis): ~55%
